Measured values reported in ChEMBL document CHEMBL1743341, “Cytochrome p450 enzymes mechanism based inhibitors: common sub-structures and reactivity” (Curr Drug Metab, 2005).

Experiments:
Cytochrome P450 2B6 [1] = molecular target: T1, Cytochrome P450 2B6 (Homo sapiens, UniProt P20813); experiment: (§1) Mechanism based inhibition of human cytochrome P450 2B6 measured by 7-EFC O-deethylation
T1 sequence (P20813 whole entry): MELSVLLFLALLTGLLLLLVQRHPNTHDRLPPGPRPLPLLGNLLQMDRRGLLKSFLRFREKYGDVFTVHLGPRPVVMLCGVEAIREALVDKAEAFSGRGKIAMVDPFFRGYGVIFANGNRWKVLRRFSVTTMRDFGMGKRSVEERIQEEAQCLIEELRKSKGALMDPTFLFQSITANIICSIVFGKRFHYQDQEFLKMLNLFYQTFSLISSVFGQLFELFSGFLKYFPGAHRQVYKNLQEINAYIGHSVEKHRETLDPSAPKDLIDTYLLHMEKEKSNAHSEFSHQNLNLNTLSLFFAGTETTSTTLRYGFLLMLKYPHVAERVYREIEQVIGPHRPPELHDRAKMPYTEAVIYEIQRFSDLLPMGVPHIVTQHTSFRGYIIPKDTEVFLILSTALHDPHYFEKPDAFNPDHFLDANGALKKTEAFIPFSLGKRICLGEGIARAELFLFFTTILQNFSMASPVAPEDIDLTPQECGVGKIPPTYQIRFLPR

Cytochrome P450 2B1 [2] = molecular target: T2, Cytochrome P450 2B1 (Rattus norvegicus, UniProt P00176); experiment: Mechanism based inhibition of rat cytochrome P450 2B1 measured by 7-EFC O-deethylation
T2 sequence (P00176 whole entry): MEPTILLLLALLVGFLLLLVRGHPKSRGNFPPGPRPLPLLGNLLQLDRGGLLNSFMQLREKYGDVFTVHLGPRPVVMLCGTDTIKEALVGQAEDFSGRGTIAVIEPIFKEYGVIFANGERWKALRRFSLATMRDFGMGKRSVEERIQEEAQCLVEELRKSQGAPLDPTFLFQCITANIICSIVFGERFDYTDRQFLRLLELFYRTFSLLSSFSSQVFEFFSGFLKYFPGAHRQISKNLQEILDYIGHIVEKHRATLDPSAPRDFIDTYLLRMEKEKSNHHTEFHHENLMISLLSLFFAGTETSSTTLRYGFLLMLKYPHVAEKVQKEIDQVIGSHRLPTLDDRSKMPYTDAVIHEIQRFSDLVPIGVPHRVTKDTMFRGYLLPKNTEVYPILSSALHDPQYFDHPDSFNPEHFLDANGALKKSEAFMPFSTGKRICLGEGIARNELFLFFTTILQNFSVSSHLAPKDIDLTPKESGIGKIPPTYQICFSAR

Cytochrome P450 3A4 [3] = molecular target: T3, Cytochrome P450 3A4 (Homo sapiens, UniProt P08684); experiment: Mechanism based inhibition of human cytochrome P450 3A4 measured by midazolam hydroxylation in vivo; assay type: ADME, organism-based
Cytochrome P450 2B6 [4] = molecular target: T1, Cytochrome P450 2B6; experiment: as §1; remark: listed apart in the source
Cytochrome P450 3A4 [5] = molecular target: T3, Cytochrome P450 3A4; experiment: Mechanism based inhibition of human cytochrome P450 3A4 measured by midazolam hydroxylase activity; assay type: ADME
Cytochrome P450 2C9 [6] = molecular target: T4, Cytochrome P450 2C9 (Homo sapiens, UniProt P11712); experiment: Mechanism based inhibition of human cytochrome P450 2C9 measured by 7-EFC O-deethylation; assay type: ADME
Cytochrome P450 2C9 [7] = molecular target: T4, Cytochrome P450 2C9; experiment: Mechanism based inhibition of human cytochrome P450 2C9 measured by tienilic acid 5-hydroxylation; assay type: ADME
Cytochrome P450 3A4 [8] = molecular target: T3, Cytochrome P450 3A4; experiment: Mechanism based inhibition of human cytochrome P450 3A4 measured by 1'-hydroxymidazolam production; assay type: ADME
CYP3A4 [9] = molecular target: T5, CYP3A4 (Homo sapiens, UniProt P08684); experiment: (§2) Mechanism based inhibition of human cytochrome P450 3A4 measured by testosterone hydroxylation; assay type: ADME; details: human, probe testosterone (hydroxylation)
Cytochrome P450 3A4 [10] = molecular target: T3, Cytochrome P450 3A4; experiment: as §2; assay type: ADME
Cytochrome P450 3A4 [11] = molecular target: T3, Cytochrome P450 3A4; experiment: Mechanism based inhibition of human cytochrome P450 3A4 measured by transformation of triazolam into its alpha-hydroxy and 4-hydroxy metabolites; assay type: ADME
CYP3A5 = CYP3A5 (Homo sapiens, UniProt P20815); experiment: (§3) Mechanism based inhibition of human cytochrome P450 3A5 measured by testosterone hydroxylation; assay type: ADME; details: human, probe testosterone (hydroxylation)
Cytochrome P450 3A5 = Cytochrome P450 3A5 (Homo sapiens, UniProt P20815); experiment: as §3; assay type: ADME
Cytochrome P450 3A4 [12] = molecular target: T3, Cytochrome P450 3A4; experiment: Mechanism based inhibition of human cytochrome P450 3A4 measured by testosterone 6-beta hydroxylation and midazolam 1'-hydroxylation; assay type: ADME
Cytochrome P450 2D6 [13] = molecular target: T6, Cytochrome P450 2D6 (Homo sapiens, UniProt P10635); experiment: (§4) Mechanism based inhibition of human cytochrome P450 2D6 measured by dextromethorphan O-demethylation using recombinant CYP2D6; assay type: ADME
CYP2D6 [14] = molecular target: T7, CYP2D6 (Homo sapiens, UniProt P10635); experiment: as §4; assay type: ADME; details: human, recombinant CYP2D6, probe dextromethorphan
Cytochrome P450 2D6 [15] = molecular target: T6, Cytochrome P450 2D6; experiment: (§5) Mechanism based inhibition of human cytochrome P450 2D6 measured by dextromethorphan O-demethylation using human liver microsomes; assay type: ADME, Microsome
CYP2D6 [16] = molecular target: T7, CYP2D6; experiment: as §5; assay type: ADME, Microsome; details: human, human liver microsomes, probe dextromethorphan
Cytochrome P450 3A4 [17] = molecular target: T3, Cytochrome P450 3A4; experiment: Mechanism based inhibition of human cytochrome P450 3A4 measured by testosterone 6-beta hydroxylation; assay type: ADME
CYP3A4 [18] = molecular target: T5, CYP3A4; experiment: Mechanism based inhibition of human cytochrome P450 3A4 measured by triazolam alpha- hydroxylation using human liver microsomes; assay type: ADME, Microsome; details: probe triazolam (alpha-hydroxylation)
CYP3A4 [19] = molecular target: T5, CYP3A4; experiment: Mechanism based inhibition of human cytochrome P450 3A4 measured by triazolam alpha- hydroxylation using recombinant CYP3A4; assay type: ADME; details: recombinant CYP3A4, probe triazolam (alpha-hydroxylation)
CYP3A4 [20] = molecular target: T5, CYP3A4; experiment: Mechanism based inhibition of human cytochrome P450 3A4 measured by triazolam 4- hydroxylation using recombinant CYP3A4; assay type: ADME; details: recombinant CYP3A4, probe triazolam (4-hydroxylation)
CYP3A4 [21] = molecular target: T5, CYP3A4; experiment: Mechanism based inhibition of human cytochrome P450 3A4 measured by triazolam 4- hydroxylation using human liver microsomes; assay type: ADME, Microsome; details: probe triazolam (4-hydroxylation)
Cytochrome P450 2D6 [22] = molecular target: T6, Cytochrome P450 2D6; experiment: (§6) Mechanism based inhibition of human cytochrome P450 2D6 measured by bufurarol hydroxylation using liver microsomes; assay type: ADME, Microsome
CYP2D6 [23] = molecular target: T7, CYP2D6; experiment: as §6; assay type: ADME, Microsome; details: probe bufurarol
Cytochrome P450 2B1 [24] = molecular target: T2, Cytochrome P450 2B1; experiment: Mechanism based inhibition of rat cytochrome P450 2B1 measured by 7-ethoxyresorufin O-deethylation (EROD); assay type: ADME

T5 sequence (P08684 whole entry): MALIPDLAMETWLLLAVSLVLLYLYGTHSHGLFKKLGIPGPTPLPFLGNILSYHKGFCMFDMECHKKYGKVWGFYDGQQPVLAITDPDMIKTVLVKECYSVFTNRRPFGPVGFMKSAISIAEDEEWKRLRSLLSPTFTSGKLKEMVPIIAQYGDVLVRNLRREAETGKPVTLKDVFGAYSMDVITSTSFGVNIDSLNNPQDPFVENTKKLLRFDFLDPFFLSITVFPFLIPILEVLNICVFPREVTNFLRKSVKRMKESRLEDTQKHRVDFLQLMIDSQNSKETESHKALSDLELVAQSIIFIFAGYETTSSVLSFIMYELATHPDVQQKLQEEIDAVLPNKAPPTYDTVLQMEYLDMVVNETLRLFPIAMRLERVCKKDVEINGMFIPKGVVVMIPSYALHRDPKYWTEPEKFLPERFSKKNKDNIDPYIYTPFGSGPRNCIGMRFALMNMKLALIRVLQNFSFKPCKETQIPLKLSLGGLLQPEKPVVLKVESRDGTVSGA
T3 sequence (P08684 whole entry): as above
T6 sequence (P10635 whole entry): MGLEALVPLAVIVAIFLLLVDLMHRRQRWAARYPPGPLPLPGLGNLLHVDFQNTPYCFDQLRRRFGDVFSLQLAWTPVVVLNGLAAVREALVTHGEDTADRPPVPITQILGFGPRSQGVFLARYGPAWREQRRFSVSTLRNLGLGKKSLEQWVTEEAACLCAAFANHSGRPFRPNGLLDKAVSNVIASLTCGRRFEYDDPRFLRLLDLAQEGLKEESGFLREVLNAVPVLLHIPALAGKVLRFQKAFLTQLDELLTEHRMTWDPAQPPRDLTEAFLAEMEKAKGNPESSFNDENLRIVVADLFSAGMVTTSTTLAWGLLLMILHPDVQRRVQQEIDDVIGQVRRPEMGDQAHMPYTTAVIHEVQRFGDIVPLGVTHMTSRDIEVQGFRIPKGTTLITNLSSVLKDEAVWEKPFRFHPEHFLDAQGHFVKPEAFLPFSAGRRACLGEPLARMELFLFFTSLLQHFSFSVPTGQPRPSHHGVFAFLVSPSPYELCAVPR
T7 sequence (P10635 whole entry): as above
T4 sequence (P11712 whole entry): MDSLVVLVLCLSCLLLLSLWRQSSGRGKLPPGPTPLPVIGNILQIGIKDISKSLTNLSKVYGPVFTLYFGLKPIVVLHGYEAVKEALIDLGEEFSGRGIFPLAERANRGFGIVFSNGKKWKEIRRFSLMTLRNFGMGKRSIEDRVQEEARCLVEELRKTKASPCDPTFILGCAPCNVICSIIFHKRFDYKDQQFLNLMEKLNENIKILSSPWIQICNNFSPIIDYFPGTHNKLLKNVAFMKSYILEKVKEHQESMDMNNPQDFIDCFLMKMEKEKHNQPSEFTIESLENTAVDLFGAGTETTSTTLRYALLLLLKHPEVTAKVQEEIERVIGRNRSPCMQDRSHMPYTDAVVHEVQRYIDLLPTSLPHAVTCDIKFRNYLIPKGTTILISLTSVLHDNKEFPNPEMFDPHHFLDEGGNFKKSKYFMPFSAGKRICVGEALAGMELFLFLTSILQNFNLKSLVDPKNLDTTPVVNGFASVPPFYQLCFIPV
Sequence of CYP3A5 (P20815 whole entry): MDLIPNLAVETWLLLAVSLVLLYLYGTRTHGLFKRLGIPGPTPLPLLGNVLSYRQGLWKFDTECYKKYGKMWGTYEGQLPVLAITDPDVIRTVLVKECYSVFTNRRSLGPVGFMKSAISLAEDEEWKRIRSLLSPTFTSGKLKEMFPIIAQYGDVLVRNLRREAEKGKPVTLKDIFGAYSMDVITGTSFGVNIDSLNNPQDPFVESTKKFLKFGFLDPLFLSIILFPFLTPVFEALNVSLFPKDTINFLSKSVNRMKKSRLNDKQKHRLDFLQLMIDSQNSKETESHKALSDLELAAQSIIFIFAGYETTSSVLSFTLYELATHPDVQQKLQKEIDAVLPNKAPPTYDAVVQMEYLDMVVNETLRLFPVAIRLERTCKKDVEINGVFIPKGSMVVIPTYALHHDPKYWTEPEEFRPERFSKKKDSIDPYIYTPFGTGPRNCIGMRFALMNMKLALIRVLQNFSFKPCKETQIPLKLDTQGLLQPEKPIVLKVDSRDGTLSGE
Sequence of Cytochrome P450 3A5 (P20815 whole entry): as above

C#C[C@]1(O)CC[C@H]2[C@@H]3CCc4cc(O)ccc4[C@H]3CC[C@@]21C [ETHINYL ESTRADIOL]
Ki (Cytochrome P450 2B6 [1]): 900 nM | Ki (Cytochrome P450 2B1 [2]): 11 µM | mechanism based inhibition (Cytochrome P450 3A4 [3]): Cytochrome P450 mechanistic inhibitor: PMID 11012556 | Ki (Cytochrome P450 2B6 [4]): 800 nM

CNCCN1C(=O)[C@H](OC(C)=O)[C@H](c2ccc(OC)cc2)Sc2ccccc21
mechanism based inhibition (Cytochrome P450 3A4 [5]): Cytochrome P450 mechanistic inhibitor: PMID 10454485

COc1cc(C2Oc3cc([C@H]4Oc5cc(O)cc(O)c5C(=O)[C@@H]4O)ccc3OC2CO)ccc1O (stereo partly specified) [SILIBININ]
Ki (Cytochrome P450 2C9 [6]): 5 µM

O=C(O)COc1ccc(C(=O)c2cccs2)c(Cl)c1Cl
mechanism based inhibition (Cytochrome P450 2C9 [7]): Cytochrome P450 mechanistic inhibitor: PMID 8944768

CCc1nn(CCCN2CCN(c3cccc(Cl)c3)CC2)c(=O)n1CCOc1ccccc1 [NEFAZODONE]
mechanism based inhibition (Cytochrome P450 3A4 [8]): Cytochrome P450 mechanistic inhibitor: PMID 15523046

CC(C)CN(C[C@@H](O)[C@H](Cc1ccccc1)NC(=O)O[C@H]1CCOC1)S(=O)(=O)c1ccc(N)cc1
kinact (CYP3A4 [9]): 0.0122 s⁻¹ | Ki (Cytochrome P450 3A4 [10]): 260 nM | mechanism based inhibition (Cytochrome P450 3A4 [11]): Cytochrome P450 mechanistic inhibitor: PMID 10952482 | kinact (CYP3A5): 0.00583 s⁻¹ | Ki (Cytochrome P450 3A5): 200 nM

COCC(=O)O[C@]1(CCN(C)CCCc2nc3ccccc3[nH]2)CCc2cc(F)ccc2[C@@H]1C(C)C [MIBEFRADIL]
mechanism based inhibition (Cytochrome P450 3A4 [12]): Cytochrome P450 mechanistic inhibitor: PMID 10640508

CNC(C)Cc1ccc2c(c1)OCO2 (stereo unspecified) [MIDOMAFETAMINE]
Ki (Cytochrome P450 2D6 [13]): 12.9 µM | kinact (CYP2D6 [14]): 0.00483 s⁻¹ | Ki (Cytochrome P450 2D6 [15]): 22.8 µM | kinact (CYP2D6 [16]): 0.00283 s⁻¹

CC[C@H]1OC(=O)[C@H](C)[C@@H](O[C@H]2C[C@@](C)(OC)[C@@H](O)[C@H](C)O2)[C@H](C)[C@@H](O[C@@H]2O[C@H](C)C[C@H](N(C)C)[C@H]2O)[C@](C)(O)C[C@@H](C)C(=O)[C@H](C)[C@@H](O)[C@]1(C)O [ERYTHROMYCIN]
mechanism based inhibition (Cytochrome P450 3A4 [17]): Cytochrome P450 mechanistic inhibitor: PMID 9806945 | kinact (CYP3A4 [18]): 0.00103 s⁻¹ | kinact (CYP3A4 [19]): 0.00288 s⁻¹ | kinact (CYP3A4 [20]): 0.00162 s⁻¹ | kinact (CYP3A4 [21]): 0.000917 s⁻¹

CCN(CC1CCN(S(C)(=O)=O)CC1)[C@@H](C)Cc1ccc2c(c1)CCO2
Ki (Cytochrome P450 2D6 [22]): 1420 nM | kinact (CYP2D6 [23]): 0.38 s⁻¹

C#CCCCc1ccccc1
mechanism based inhibition (Cytochrome P450 2B1 [24]): Cytochrome P450 mechanistic inhibitor: PMID 9760279
